# Source: PubChem BioAssay (NCI)
# “And” between values parts separate entries of the source, which are not always exact repeats. Equal values may be shown once.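 A five-concentration, 48-hour dose response in 96-well plates underlies each endpoint, interpolated linearly between surrounding concentrations. GI50 marks 50% less growth. Definition used: TGI = concentration required for complete inhibition of growth.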
# How the values were obtained:
# Assay in all cases: NCI tumour cell line growth inhibition, 48 h
# [1] = test system: MOLT-4 leukemia
# [2] = test system: SN12C renal
# [3] = test system: HOP-92 NSCLC
# [4] = test system: OVCAR-8 ovarian
# [5] = test system: MDA-MB-231 breast
# [6] = test system: HCC-2998 colon
# [7] = test system: OVCAR-4 ovarian
# [8] = test system: RXF 393 renal
Compound,GI50 [1],TGI [1],GI50 [2],TGI [2],GI50 [3],TGI [3],GI50 [4],TGI [4],GI50 [5],TGI [5],GI50 [6],TGI [6],GI50 [7],TGI [7],GI50 [8],TGI [8]
Cc1cc(C2=NNC(=O)Cc3cc4c(cc32)OCCO4)cc(C)c1N,3.97 µM,> 100 µM,6.17 µM,> 100 µM,3.54 µM,> 100 µM,4.08 µM,> 100 µM,6.25 µM,> 100 µM,3.26 µM,44 µM,6.4 µM,> 100 µM,–,–
COc1ccc2nc3cc(Cl)ccc3c(N3CCN(c4ccnc(N5CCOCC5)n4)CC3)c2c1,6.24 µM,> 100 µM,> 100 µM,> 100 µM,11.5 µM,> 100 µM,43.5 µM,> 100 µM,–,–,3.86 µM,42.4 µM,–,–,2.68 µM,16.1 µM
O=C(c1ccco1)c1nc2cc(F)ccc2[n+]([O-])c1C(F)(F)F,24.8 µM,66.3 µM,44.4 µM,> 100 µM,22.6 µM,58.7 µM,22.5 µM,62 µM,22.6 µM,60.5 µM,17 µM,32 µM,21.5 µM,50.5 µM,19.2 µM,52.7 µM
O=[N+]([O-])c1ccc2c(N3CCC(CCCC4CCN(c5ncnc6cc([N+](=O)[O-])ccc56)CC4)CC3)ncnc2c1,24.8 µM,> 100 µM,> 55.9 µM,> 100 µM,4.89 µM,> 76 µM,1.62 µM,> 100 µM,> 47.1 µM,> 100 µM,> 87.1 µM,> 100 µM,21.5 µM,> 100 µM,30.8 µM,> 100 µM
CCOC(=O)c1c2c(n(Cc3ccccc3)c1C)-c1ccccc1C(=O)C2=O,–,–,15.7 µM,41.6 µM,6.54 µM,21.6 µM,14.9 µM,43.7 µM,13.1 µM,27.9 µM,6.35 µM,19.6 µM,10.9 µM,25.4 µM,17.1 µM,36.6 µM
COC(=O)c1ccc(NC(=O)Nc2ccc3oc(=O)c4ccccc4c3c2)cc1,17.6 µM,62.1 µM,44.5 µM,> 100 µM,28.5 µM,80.9 µM,36.6 µM,> 100 µM,23.7 µM,55.9 µM,27.1 µM,74 µM,33.5 µM,> 100 µM,–,–
CN(C)c1ccc(/C=C(\C#N)c2nc3ccccc3n2C)cc1,7.03 µM,> 38 µM,11.6 µM,> 100 µM,5.68 µM,28.9 µM,4.79 µM,> 72.9 µM,5.41 µM,> 100 µM,4.43 µM,27.7 µM,4.22 µM,> 21.9 µM,2.77 µM,> 24.8 µM
O=C1c2ccccc2C(=Cc2ccccc2)c2ccccc21,4.74 µM,> 100 µM,2.97 µM,14.1 µM,1.45 µM,5.17 µM,2.19 µM,5.26 µM,2.78 µM,35.9 µM,2.69 µM,10.1 µM,4.31 µM,24.4 µM,3.06 µM,9.63 µM
O=C1OCCC1C(O)C1c2ccccc2-c2ccccc21 (configuration not stated),–,> 100 µM,–,> 100 µM,–,> 100 µM,–,> 100 µM,–,–,–,–,–,> 100 µM,–,–
CC(=O)c1cc2c(cc1Nc1c3ccccc3nc3occ(Cl)c13)OCO2,0.198 µM,> 100 µM,0.603 µM,> 100 µM,12.7 µM,> 100 µM,0.205 µM,0.766 µM,0.283 µM,0.613 µM,0.187 µM,0.37 µM,82.9 µM,> 100 µM,0.193 µM,0.523 µM
O=C(CCCN1CCOCC1)Nc1ccc(Cn2nnc3c2C(=O)c2nnn(Cc4ccc(NC(=O)CCCN5CCOCC5)cc4)c2C3=O)cc1,1.61 µM,4.85 µM,1.79 µM,3.67 µM,2.54 µM,5.04 µM,3.78 µM,> 100 µM,–,–,2.62 µM,5.79 µM,1.25 µM,2.51 µM,4.33 µM,38.9 µM
CC/C=C\C/C=C\C[C@H](O)C/C=C1/C(=O)C=C[C@@H]1C/C=C\CCCC(=O)O,2.83 µM,11.8 µM,3.6 µM,43.1 µM,7.26 µM,20.4 µM,3.56 µM,13.9 µM,7.94 µM,44.4 µM,2.21 µM,4.28 µM,4.15 µM,20 µM,2.94 µM,8.71 µM
C1C[S][Ge]2([S]CCO1)[S]CCOCC[S]2,> 100 µM,> 100 µM,> 100 µM,> 100 µM,> 100 µM,> 100 µM,–,–,–,–,> 100 µM,> 100 µM,> 100 µM,> 100 µM,–,–
Cc1cc(=O)[nH]o1,–,–,–,–,–,> 100 µM,–,> 100 µM,–,> 100 µM,–,> 100 µM,–,> 100 µM,–,> 100 µM
CC(=O)OCC(=O)O[C@@H]1C[C@]2(C(C)C)O[C@@]1(C)[C@@H]1CC[C@@H](C)[C@H]1[C@@H]2OC(=O)/C=C/c1ccccc1,20.3 µM,> 100 µM,1.88 µM,24.3 µM,8.81 µM,22.9 µM,0.0747 µM,> 56.3 µM,14 µM,33.4 µM,20 µM,75.3 µM,22.7 µM,> 100 µM,0.211 µM,2.01 µM
CN1CCN(Cc2ccc(NC(=O)c3cncc(C#Cc4cncc5ncccc45)c3)cc2C(F)(F)F)CC1,1.18 µM,16 µM,2.59 µM,11.8 µM,1.16 µM,4.92 µM,4.53 µM,18.3 µM,1.07 µM,3.05 µM,2.46 µM,17.6 µM,–,–,1.77 µM,6.46 µM
COc1c(NC(C)=O)cc(C)cc1NC(C)=O,–,> 100 µM,–,> 100 µM,–,> 100 µM,–,> 100 µM,–,–,–,> 100 µM,–,> 100 µM,–,> 100 µM

Compound,GI50 [1],TGI [1],GI50 [2],TGI [2],GI50 [3],TGI [3],GI50 [4],TGI [4],GI50 [5],TGI [5],GI50 [6],TGI [6],GI50 [7],TGI [7],GI50 [8],TGI [8]
O=C(Nc1cccc(Oc2nnc(Cl)c3ccccc23)c1)Nc1ccc(Cl)c(C(F)(F)F)c1,0.494 µM,4.18 µM,0.941 µM,3.85 µM,0.352 µM,1.96 µM,1.3 µM,9.5 µM,0.358 µM,2.44 µM,0.872 µM,3.48 µM,0.593 µM,6.01 µM,1.17 µM,3.87 µM
O=c1cc(N2CCNCC2)oc2c(-c3ccccc3)cccc12,19.4 µM,56.8 µM,45.1 µM,> 100 µM,17.3 µM,> 100 µM,74.2 µM,> 100 µM,24.1 µM,> 100 µM,18.1 µM,39.8 µM,52.7 µM,> 100 µM,–,–
CCOc1cc2c(cc1O)/C(=N\O)C[C@@H]1[C@@H]2CC[C@]2(C)[C@@H](O)CC[C@@H]12,–,0.977 µM,0.059 µM,> 100 µM,14.8 µM,> 100 µM,–,> 100 µM,–,–,1.63 µM,9.51 µM and > 41.1 µM,8.67 µM,> 100 µM,–,> 100 µM
C=CC[P+](c1ccccc1)(c1ccccc1)c1ccccc1,5.07 µM,> 100 µM,6.36 µM,> 100 µM,–,–,3.25 µM,> 100 µM,7.61 µM,> 100 µM,3.19 µM,> 100 µM,2.84 µM,> 100 µM,27.6 µM,> 100 µM
Cn1c(O)c(C(/C=C/c2ccccc2)=NCCN=C(/C=C/c2ccccc2)c2c(O)n(C)c(=O)n(C)c2=O)c(=O)n(C)c1=O,15.8 µM,> 50 µM,16.5 µM,> 50 µM,12 µM,32.5 µM,16.6 µM,> 50 µM,20.9 µM,> 50 µM,–,–,13.9 µM,> 50 µM,22.5 µM,> 50 µM
Cn1cc(C2=C(c3cccnc3)C(=O)NC2=O)c2ccccc21,> 21.6 µM,> 25 µM,> 25 µM,> 25 µM,–,–,> 25 µM,> 25 µM,> 23.8 µM,> 25 µM,> 25 µM,> 25 µM,> 22.2 µM,> 25 µM,5.63 µM,> 17.9 µM
COc1ccc(C2=NN(C(=O)c3cc(OC)c(OC)c(OC)c3)C(c3ccc(Cl)cc3)C2)cc1OC (configuration not stated),2.73 µM,> 100 µM,4.89 µM,56 µM,–,5.41 µM,4.63 µM,> 58.6 µM,2.27 µM,> 68.3 µM,7.61 µM,> 100 µM,5.22 µM,49.6 µM,–,–
C[C@@H]1CC[C@@H]2[C@@H]1[C@H](OC(=O)/C=C/c1ccccc1)[C@]1(C3CCCCC3)C[C@@H](NC(=O)CO)[C@@]2(C)O1,18.5 µM,39.3 µM,11.4 µM,24.2 µM,–,–,16.3 µM,32 µM,18.9 µM,35.4 µM,18.3 µM,35.1 µM,16 µM,35.4 µM,3.29 µM,13.8 µM
Oc1ccc(O)c(-c2cc(-c3ccccc3)nn2-c2ccccc2)c1,60.5 µM,> 100 µM,17 µM,45 µM,88.9 µM,> 100 µM,17.2 µM,74 µM,30.3 µM,> 100 µM,–,–,–,–,31.3 µM,> 100 µM
CN[C@@H](C)[C@@H](N)c1ccccc1,–,> 100 µM,–,> 100 µM,–,> 100 µM,–,> 100 µM,–,–,–,> 100 µM,–,–,–,> 100 µM
CCOC(=O)/C=C/c1cc2cc(-c3csc4ccccc34)ccc2[nH]1,2.44 µM,10.4 µM,–,–,10.7 µM,29.5 µM,3.79 µM,13.7 µM,5.26 µM,18.2 µM,14.4 µM,30.2 µM,7.1 µM,19.8 µM,3.86 µM,–
O=C(CSC(c1ccccc1)c1ccccc1)N/N=C/c1cccc(Cl)c1,19.1 µM,43.2 µM,–,–,21.2 µM,37.2 µM,17.6 µM,39.6 µM,14.4 µM,28.6 µM,18.6 µM,32.6 µM,15 µM,30.8 µM,13.9 µM,29.5 µM
O=C(Nc1ccc(CN2CCOCC2)cc1)c1[nH]ncc1Nc1ncnc2sccc12,–,–,0.39 µM,> 100 µM,5.52 µM,> 100 µM,0.522 µM,22.4 µM,0.854 µM,> 100 µM,0.68 µM,5.08 µM,0.6 µM,6.28 µM,0.204 µM,0.639 µM
COc1cnc2c(c1)C(=O)c1c-2n(CCCN2CCC(O)CC2)c(=O)c2cc(F)ccc12,0.0445 µM,0.337 µM,–,–,0.31 µM,3.22 µM,0.173 µM,1.16 µM,0.485 µM,2.1 µM,1.23 µM,9.98 µM,–,–,0.217 µM,0.838 µM
CCOC(=O)C1=C(C)NC2SC(=O)/C(=C\c3ccccc3O)N2C1c1ccccc1 (configuration not stated),–,–,16.6 µM,30.5 µM,20.8 µM,43.2 µM,24.6 µM,61.6 µM,33.8 µM,88.4 µM,26.5 µM,64.8 µM,–,–,19 µM,46.9 µM
COc1cccc2c1-c1c(c3ccc([N+](=O)[O-])cc3c(=O)n1CCCCl)C2=O,2.23 µM,> 50 µM,15.8 µM,> 50 µM,–,–,> 50 µM,> 50 µM,29.5 µM,> 50 µM,–,–,–,–,–,–
CO/N=C(\C)c1cccc(Nc2cc(-c3ccccc3)nc3c(O)cccc23)c1,–,–,5.04 µM,24.5 µM,5.28 µM,28.9 µM,5.52 µM,25.9 µM,2.74 µM,9.4 µM,2.88 µM,12.6 µM,61.3 µM,> 100 µM,3.69 µM,14.9 µM
